Test results reported in ChEMBL document CHEMBL1909046, “DrugMatrix in vitro pharmacology data”.

How the values were obtained:
[1] = molecular target: T1, Muscarinic acetylcholine receptor M2 (Homo sapiens, UniProt P08172); assay type: cell membranes, CHO-K1, Membrane; details: cho-k1; also: in other assays of this panel Not Active means under 50% inhibition at 10 µM
T1 sequence (P08172 whole entry): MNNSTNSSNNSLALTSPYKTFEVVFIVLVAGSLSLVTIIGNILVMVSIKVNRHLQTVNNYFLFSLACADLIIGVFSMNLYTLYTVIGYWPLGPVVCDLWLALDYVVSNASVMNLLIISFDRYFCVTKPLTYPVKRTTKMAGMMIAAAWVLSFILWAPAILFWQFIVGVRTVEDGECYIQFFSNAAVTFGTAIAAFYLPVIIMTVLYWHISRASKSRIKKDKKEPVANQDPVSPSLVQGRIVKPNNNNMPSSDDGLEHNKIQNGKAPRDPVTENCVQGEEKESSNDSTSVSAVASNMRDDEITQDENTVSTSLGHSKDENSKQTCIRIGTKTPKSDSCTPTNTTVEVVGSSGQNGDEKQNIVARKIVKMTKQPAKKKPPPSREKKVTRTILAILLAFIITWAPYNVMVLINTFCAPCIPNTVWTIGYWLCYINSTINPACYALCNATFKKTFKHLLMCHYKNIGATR

[2] = molecular target: Aldo-keto reductase family 1 member B1 (Rattus norvegicus, UniProt P07943); assay type: tissue-based, Lens of camera-type eye;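 also: inhibition of aldose reductase enzyme activity, measured with DL-glyceraldehyde as the substrate; in other assays of this panel Not Active means under 50% inhibition at 10 µM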
[3] = molecular target: T2, 5-hydroxytryptamine receptor 2C (Homo sapiens, UniProt P28335); assay: DRUGMATRIX: Serotonin (5-Hydroxytryptamine) 5-HT2C radioligand binding (ligand: [3H] Mesulergine); assay type: cell membranes, CHO-K1, Membrane; details: Not Active = under 50% inhibition at 10 µM
T2 sequence (P28335 whole entry): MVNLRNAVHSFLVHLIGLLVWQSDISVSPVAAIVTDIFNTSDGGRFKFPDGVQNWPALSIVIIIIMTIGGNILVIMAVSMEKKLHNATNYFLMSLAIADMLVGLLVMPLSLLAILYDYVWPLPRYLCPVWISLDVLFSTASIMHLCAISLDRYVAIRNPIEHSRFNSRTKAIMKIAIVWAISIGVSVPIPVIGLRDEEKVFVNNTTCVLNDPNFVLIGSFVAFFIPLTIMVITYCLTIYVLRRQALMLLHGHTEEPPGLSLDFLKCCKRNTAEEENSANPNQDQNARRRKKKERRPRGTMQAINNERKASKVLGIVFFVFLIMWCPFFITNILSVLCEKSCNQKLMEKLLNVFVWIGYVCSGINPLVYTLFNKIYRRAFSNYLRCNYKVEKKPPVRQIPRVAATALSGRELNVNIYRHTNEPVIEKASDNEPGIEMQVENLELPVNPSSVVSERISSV

[4] = molecular target: T3, 3-hydroxy-3-methylglutaryl-coenzyme A reductase (Homo sapiens, UniProt P04035); parameters: species or system Escherichia coli;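 also: enzyme inhibition assay of HMG-CoA reductase using radiolabeled [14C]HMG-CoA as substrate; in other assays of this panel Not Active means under 50% inhibition at 10 µM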
T3 sequence (P04035 whole entry): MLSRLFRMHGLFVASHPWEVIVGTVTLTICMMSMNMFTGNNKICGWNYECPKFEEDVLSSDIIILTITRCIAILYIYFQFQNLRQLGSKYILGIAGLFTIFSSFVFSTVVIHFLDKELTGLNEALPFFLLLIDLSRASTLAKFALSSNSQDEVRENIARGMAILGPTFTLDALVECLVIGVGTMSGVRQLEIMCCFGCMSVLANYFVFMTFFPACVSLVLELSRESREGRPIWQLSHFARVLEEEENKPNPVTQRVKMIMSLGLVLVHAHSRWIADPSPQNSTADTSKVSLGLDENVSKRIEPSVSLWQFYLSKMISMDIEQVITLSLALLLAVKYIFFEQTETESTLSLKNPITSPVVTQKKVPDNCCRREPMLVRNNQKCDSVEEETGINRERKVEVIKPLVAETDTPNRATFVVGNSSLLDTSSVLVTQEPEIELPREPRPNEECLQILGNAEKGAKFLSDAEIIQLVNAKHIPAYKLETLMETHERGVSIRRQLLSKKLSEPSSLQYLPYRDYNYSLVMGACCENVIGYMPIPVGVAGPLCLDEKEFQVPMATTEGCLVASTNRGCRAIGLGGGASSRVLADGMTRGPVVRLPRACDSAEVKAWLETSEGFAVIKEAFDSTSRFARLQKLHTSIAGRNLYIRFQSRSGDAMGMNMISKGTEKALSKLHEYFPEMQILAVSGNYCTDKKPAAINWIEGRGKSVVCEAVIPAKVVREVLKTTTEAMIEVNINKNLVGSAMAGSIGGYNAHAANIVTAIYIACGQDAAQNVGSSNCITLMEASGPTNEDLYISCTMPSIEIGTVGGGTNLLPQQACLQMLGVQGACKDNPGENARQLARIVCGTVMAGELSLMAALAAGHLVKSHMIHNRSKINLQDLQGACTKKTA

[5] = molecular target: Tyrosine-protein kinase Fyn (Homo sapiens, UniProt P06241); assay: biochemical; assay type: cell-based, Insect cells;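 also: enzymatic inhibition of Fyn kinase activity measured with Poly(Glu:Tyr) as the phosphorylation substrate; in other assays of this panel Not Active means under 50% inhibition at 10 µM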
Sequence of Tyrosine-protein kinase Fyn (P06241 whole entry): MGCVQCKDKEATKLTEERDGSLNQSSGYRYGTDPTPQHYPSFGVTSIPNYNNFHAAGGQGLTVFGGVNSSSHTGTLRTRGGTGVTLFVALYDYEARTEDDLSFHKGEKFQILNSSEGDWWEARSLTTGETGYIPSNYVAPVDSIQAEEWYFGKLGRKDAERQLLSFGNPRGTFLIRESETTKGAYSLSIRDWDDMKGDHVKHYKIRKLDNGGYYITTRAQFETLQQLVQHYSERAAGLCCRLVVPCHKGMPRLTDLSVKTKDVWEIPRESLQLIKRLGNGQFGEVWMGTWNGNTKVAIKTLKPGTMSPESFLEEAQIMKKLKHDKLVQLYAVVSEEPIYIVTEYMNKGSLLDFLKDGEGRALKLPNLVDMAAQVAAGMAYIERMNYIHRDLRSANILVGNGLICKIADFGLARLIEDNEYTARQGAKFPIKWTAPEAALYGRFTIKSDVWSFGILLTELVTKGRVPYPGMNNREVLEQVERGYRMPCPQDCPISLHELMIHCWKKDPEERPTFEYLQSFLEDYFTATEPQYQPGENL

Melanocortin receptor 4 = Melanocortin receptor 4 (Homo sapiens, UniProt P32245); assay type: cell membranes, Membrane; details: hek293; also: in other assays of this panel Not Active means under 50% inhibition at 10 µM
Sequence of Melanocortin receptor 4 (P32245 whole entry): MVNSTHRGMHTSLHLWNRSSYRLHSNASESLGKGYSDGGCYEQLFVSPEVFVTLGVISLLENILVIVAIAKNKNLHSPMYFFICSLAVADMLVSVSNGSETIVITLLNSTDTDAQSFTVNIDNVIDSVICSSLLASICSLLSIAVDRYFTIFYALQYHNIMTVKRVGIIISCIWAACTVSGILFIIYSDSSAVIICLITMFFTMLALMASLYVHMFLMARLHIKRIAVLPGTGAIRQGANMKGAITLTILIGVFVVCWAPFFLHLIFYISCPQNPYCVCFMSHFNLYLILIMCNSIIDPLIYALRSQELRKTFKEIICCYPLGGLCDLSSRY

Cytochrome P450 2C19 = Cytochrome P450 2C19 (Homo sapiens, UniProt P33261); details: bti-tn-5b1-4; also: in other assays of this panel Not Active means under 50% inhibition at 10 µM
Sequence of Cytochrome P450 2C19 (P33261 whole entry): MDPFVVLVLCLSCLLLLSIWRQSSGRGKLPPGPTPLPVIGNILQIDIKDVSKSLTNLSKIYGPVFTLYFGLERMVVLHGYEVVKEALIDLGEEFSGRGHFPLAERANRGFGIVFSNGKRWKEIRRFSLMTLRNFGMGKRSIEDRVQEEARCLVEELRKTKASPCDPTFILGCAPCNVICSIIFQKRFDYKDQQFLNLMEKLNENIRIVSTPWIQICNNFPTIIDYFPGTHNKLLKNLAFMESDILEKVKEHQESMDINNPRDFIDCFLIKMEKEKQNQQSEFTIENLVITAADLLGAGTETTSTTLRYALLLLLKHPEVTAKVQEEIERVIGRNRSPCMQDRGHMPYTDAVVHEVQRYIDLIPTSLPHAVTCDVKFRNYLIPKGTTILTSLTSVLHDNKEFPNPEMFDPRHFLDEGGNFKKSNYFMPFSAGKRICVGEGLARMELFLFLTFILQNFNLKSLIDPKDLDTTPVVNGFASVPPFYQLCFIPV

Cytochrome P450 2E1 = Cytochrome P450 2E1 (Homo sapiens, UniProt P05181); details: bti-tn-5b1-4; also: in other assays of this panel Not Active means under 50% inhibition at 10 µM
Sequence of Cytochrome P450 2E1 (P05181 whole entry): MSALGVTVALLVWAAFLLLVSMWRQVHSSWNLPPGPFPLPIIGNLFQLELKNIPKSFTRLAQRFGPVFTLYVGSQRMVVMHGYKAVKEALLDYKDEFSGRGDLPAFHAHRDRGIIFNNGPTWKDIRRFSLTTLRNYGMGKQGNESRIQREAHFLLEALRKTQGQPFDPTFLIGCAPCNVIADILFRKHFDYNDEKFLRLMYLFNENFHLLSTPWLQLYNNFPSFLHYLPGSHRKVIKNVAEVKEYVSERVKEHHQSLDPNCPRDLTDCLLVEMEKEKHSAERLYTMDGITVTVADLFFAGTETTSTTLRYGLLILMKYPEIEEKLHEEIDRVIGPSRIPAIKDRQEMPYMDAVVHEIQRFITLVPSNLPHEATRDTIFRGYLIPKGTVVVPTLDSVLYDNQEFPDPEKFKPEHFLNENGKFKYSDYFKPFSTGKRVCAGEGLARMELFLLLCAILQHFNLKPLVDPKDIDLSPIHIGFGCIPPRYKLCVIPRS

[6] = molecular target: 5-hydroxytryptamine receptor 6 (Homo sapiens, UniProt P50406); assay type: cell membranes, HeLa, Membrane; details: hela; also: in other assays of this panel Not Active means under 50% inhibition at 10 µM
Sequence of 5-hydroxytryptamine receptor 6 (P50406 whole entry): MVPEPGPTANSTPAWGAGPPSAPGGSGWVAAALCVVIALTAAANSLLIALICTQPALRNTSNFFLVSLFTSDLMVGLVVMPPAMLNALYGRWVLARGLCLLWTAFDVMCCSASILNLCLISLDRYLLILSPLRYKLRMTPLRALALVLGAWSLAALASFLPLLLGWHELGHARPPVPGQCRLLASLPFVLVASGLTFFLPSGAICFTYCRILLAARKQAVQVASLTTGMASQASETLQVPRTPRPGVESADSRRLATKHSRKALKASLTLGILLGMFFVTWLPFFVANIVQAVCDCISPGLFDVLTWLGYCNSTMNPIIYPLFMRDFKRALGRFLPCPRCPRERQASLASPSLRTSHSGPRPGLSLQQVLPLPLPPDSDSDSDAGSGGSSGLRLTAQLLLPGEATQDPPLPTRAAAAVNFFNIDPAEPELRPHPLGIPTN

[7] = molecular target: T4, Alpha-2A adrenergic receptor (Homo sapiens, UniProt P08913); assay type: cell membranes, Sf9, Membrane; details: sf9; also: in other assays of this panel Not Active means under 50% inhibition at 10 µM
T4 sequence (P08913 whole entry): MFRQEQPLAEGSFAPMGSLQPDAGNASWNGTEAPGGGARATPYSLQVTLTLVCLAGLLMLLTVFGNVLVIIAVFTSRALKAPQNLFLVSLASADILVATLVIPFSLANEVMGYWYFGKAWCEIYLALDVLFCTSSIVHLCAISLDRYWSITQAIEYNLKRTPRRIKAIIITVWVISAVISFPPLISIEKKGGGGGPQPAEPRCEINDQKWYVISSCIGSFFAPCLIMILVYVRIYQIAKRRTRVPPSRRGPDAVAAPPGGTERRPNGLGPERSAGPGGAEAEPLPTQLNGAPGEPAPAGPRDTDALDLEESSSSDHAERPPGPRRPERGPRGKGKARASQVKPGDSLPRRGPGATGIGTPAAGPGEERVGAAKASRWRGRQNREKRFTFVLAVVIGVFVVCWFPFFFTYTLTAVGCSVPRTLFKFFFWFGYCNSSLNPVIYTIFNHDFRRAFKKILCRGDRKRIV

[8] = DRUGMATRIX: Calcium Channel Type L, Dihydropyridine radioligand binding (ligand: [3H] Nitrendipine); assay type: cell membranes, Rattus norvegicus, Wistar, Cerebral cortex, Membrane; details: Not Active = under 50% inhibition at 10 µM

Compound	IC50 [1]	IC50 [2]	IC50 ([3]; cho-k1)	IC50 [4]	IC50 ([5]; insect cells)	IC50 (Melanocortin receptor 4)	IC50 (Cytochrome P450 2C19)	Ki (Cytochrome P450 2C19)	IC50 (Cytochrome P450 2E1)	Ki (Cytochrome P450 2E1)	IC50 [6]	IC50 [7]	IC50 [8]	Ki [8]	other results
CC(=O)CCCCn1c(=O)c2c(ncn2C)n(C)c1=O [PENTOXIFYLLINE]	Not Active	Not Active	Not Active	Not Active	Not Active	Not Active	Not Active	Not Active	Not Active	Not Active	Not Active	Not Active	Not Active	Not Active	–
C=C1C(=O)O[C@@H]2C3O[C@]3(C)CC/C=C(\C)CC[C@@H]12 (stereo partly drawn)	Not Active	Not Active	Not Active	Not Active	Not Active	Not Active	Not Active	Not Active	Not Active	Not Active	Not Active	Not Active	Not Active	Not Active	–
CARBOPLATIN	Not Active	Not Active	Not Active	Not Active	Not Active	Not Active	Not Active	Not Active	Not Active	Not Active	Not Active	Not Active	Not Active	Not Active	Ki [1]: Not Active; Ki [2]: Not Active; Ki ([3]; cho-k1): Not Active; Ki [4]: Not Active; Ki ([5]; insect cells): Not Active; Ki (Melanocortin receptor 4): Not Active; Ki [6]: Not Active; Ki [7]: Not Active
c1ccc2c(c1)cc1ccc3cccc4ccc2c1c34	Not Active	Not Active	Not Active	Not Active	–	Not Active	Not Active	Not Active	Not Active	Not Active	Not Active	Not Active	Not Active	Not Active	IC50 ([5]; read-out: IC50): 26200 nM
Cc1ccccc1N1CCN(CCc2nnc3n2CCCC3)CC1 [DAPIPRAZOLE]	Not Active	Not Active	–	Not Active	Not Active	Not Active	Not Active	Not Active	Not Active	Not Active	Not Active	Not Active	Not Active	Not Active	IC50 ([3]; read-out: IC50): 625 nM; Ki ([3]; read-out: Ki): 327 nM
CC[C@@]1(O)C(=O)OCc2c1cc1n(c2=O)Cc2cc3ccccc3nc2-1 [CAMPTOTHECIN]	Not Active	Not Active	Not Active	Not Active	Not Active	Not Active	Not Active	Not Active	Not Active	Not Active	Not Active	Not Active	Not Active	Not Active	–
